Experimental findings from ChEMBL document CHEMBL3879901, “Substituted isoquinolin-1(2H)-ones, and methods of use thereof” (2012) are described below.

Assay [1] deals with Rattus norvegicus. The assay can be described thus: Antiarthritic activity in type 2 collagen-induced Lewis rat arthritis model assessed as reduction in ankle diameter at 10 to 60 mg/kg, po administered every 12 hrs for 16 days measured on day 9 of compound dosing to day 17 of post last dose relative to vehicle-treated control. It counts as functional, organism-based.
Assay [2] deals with Rattus norvegicus. In words: Antiarthritic activity in type 2 collagen-induced po dosed Lewis rat arthritis model assessed as reduction in knee inflammation administered every 12 hrs for 16 days measured on day 17 of post last dose by toluidine blue staining-based assay. It counts as functional, organism-based.
For assay [3], the system named is Rattus norvegicus. In words: Antiarthritic activity in type 2 collagen-induced Lewis rat arthritis model assessed as reduction in ankle diameter at 10 to 60 mg/kg, po bid administered for 6 days measured every day of compound dosing and day 7 of post last dose. It counts as functional, organism-based.
Assay [4] has as its system Rattus norvegicus. In words: Antiarthritic activity in complete freund's adjuvant-induced intrathecally dosed Lewis rat arthritis model assessed as reduction in paw volume administered on day 8 to 20 post arthritis induction measured every second day of compound dosing by water displacement plethysmometry. It counts as functional, organism-based.
Assay [5] has as its system Rattus norvegicus. In words: Antiarthritic activity in type 2 collagen-induced po dosed Lewis rat arthritis model assessed as reduction in bone resorption in knee administered every 12 hrs for 16 days measured on day 17 of post last dose by toluidine blue staining-based assay. It counts as functional, organism-based.
In assay [6] the test system is Rattus norvegicus. The assay can be described thus: Antiarthritic activity in type 2 collagen-induced Lewis rat arthritis model assessed as reduction in serum anti-type 2 collagen levels at 60 mg/kg, po administered every 12 hrs for 16 days measured on day 17 of post last dose by ELISA relative to control. It counts as functional. More on the design: scale not given: the % may be the effect or the level left.

The target of assay [7] is T1, Phosphatidylinositol 4,5-bisphosphate 3-kinase catalytic subunit delta isoform (Mus musculus) (UniProt O35904).
T1 sequence (whole entry): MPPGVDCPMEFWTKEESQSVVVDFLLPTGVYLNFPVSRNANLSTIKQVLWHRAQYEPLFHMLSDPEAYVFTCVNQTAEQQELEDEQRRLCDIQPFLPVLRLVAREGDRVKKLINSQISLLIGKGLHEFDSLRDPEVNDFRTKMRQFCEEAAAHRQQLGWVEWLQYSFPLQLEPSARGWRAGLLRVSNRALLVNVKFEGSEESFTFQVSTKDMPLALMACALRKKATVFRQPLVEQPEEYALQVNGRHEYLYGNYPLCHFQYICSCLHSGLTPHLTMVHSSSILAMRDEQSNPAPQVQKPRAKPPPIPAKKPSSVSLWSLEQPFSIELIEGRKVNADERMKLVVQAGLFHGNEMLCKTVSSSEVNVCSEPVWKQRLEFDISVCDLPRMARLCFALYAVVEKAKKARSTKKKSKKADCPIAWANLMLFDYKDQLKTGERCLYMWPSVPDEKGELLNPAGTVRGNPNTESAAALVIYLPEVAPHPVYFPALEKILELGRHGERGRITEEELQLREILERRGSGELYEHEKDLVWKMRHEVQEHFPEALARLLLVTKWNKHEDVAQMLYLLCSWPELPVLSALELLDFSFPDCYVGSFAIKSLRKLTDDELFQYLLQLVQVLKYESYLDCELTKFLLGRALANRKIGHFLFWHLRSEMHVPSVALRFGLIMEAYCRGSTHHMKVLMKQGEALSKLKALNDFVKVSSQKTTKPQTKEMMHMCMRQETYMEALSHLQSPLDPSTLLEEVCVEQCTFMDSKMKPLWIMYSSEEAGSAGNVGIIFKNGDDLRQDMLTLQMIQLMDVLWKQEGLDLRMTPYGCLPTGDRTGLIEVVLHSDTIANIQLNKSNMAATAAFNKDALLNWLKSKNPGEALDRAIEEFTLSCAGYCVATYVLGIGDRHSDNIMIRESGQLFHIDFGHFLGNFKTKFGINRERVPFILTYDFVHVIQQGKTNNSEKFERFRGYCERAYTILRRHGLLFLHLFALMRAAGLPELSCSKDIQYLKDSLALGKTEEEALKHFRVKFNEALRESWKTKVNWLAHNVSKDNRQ
The assay can be described thus: Inhibition of PI3Kdelta in LPS or anti-CD40/IL4-stimulated mouse B cells assessed as decrease in IgG response in presence of mTOR inhibitor rapamycin relative to vehicle-treated control. It counts as cell-based.

Assay [8] deals with Rattus norvegicus. The assay can be described thus: Antiarthritic activity in type 2 collagen-induced po dosed Lewis rat arthritis model assessed as reduction in knee pannus administered every 12 hrs for 16 days measured on day 17 of post last dose by toluidine blue staining-based assay. It counts as functional, organism-based.
For assay [9], the system named is Mus musculus. In words: Reduction of TNP-Ficoll-induced T cell independent B cell activation in BDA-1 mouse assessed as decrease in IgG3 levels in serum at 3 mg/kg, po bid administered for 7 days by ELISA relative to control. Type of assay: functional.

Calls of active or inactive are those of the source. No cut-off for these calls is given here.

Regarding `CC(=O)Nc1nc2ccc(-c3nn(Cc4cc5cccc(C)c5c(=O)n4-c4ccccc4C)c4ncnc(N)c34)cc2s1`, the outcome in assay [1] and in assay [3] was Active. In addition, the Activity entry in assay [2] was “Dose-dependent effect”; in assay [4] it was “Dose-dependent effect”; in assay [5], “Dose-dependent effect”; in assay [6], 86%; in assay [8] it was “Dose-dependent effect”. The inhibition entry in assay [7] is “Active”. The “fold change (FC)” value in assay [9] stood at 0.8.
